From PubChem BioAssay (NCI)
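How tested: cells in 96-well plates exposed to compound for 48 hours at five concentrations. GI50 = concentration required for 50% inhibition of growth. TGI is the concentration that stops growth completely.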

Key:
Test in all cases: NCI tumour cell line growth inhibition, 48 h
BT-549 breast = test system: BT-549 breast
HT29 colon = test system: HT29 colon
OVCAR-3 ovarian = test system: OVCAR-3 ovarian
EKVX NSCLC = test system: EKVX NSCLC
HOP-92 NSCLC = test system: HOP-92 NSCLC
MALME-3M melanoma = test system: MALME-3M melanoma
SF-295 CNS = test system: SF-295 CNS
SW-620 colon = test system: SW-620 colon
CCRF-CEM leukemia = test system: CCRF-CEM leukemia
MDA-MB-435 = test system: MDA-MB-435
HOP-62 NSCLC = test system: HOP-62 NSCLC
RXF 393 renal = test system: RXF 393 renal
HL-60(TB) leukemia = test system: HL-60(TB) leukemia
MCF7 breast = test system: MCF7 breast
SF-268 CNS = test system: SF-268 CNS
RPMI-8226 leukemia = test system: RPMI-8226 leukemia
TK-10 renal = test system: TK-10 renal
SK-MEL-28 melanoma = test system: SK-MEL-28 melanoma
U251 CNS = test system: U251 CNS
ACHN renal = test system: ACHN renal
OVCAR-5 ovarian = test system: OVCAR-5 ovarian
MDA-N = test system: MDA-N
NCI-H226 lung = test system: NCI-H226 lung
OVCAR-8 ovarian = test system: OVCAR-8 ovarian
SK-OV-3 ovarian = test system: SK-OV-3 ovarian
SR leukemia = test system: SR leukemia
HCT-15 colon = test system: HCT-15 colon
SK-MEL-5 melanoma = test system: SK-MEL-5 melanoma
UACC-62 melanoma = test system: UACC-62 melanoma
SNB-19 CNS = test system: SNB-19 CNS
NCI-H522 lung = test system: NCI-H522 lung
SF-539 CNS = test system: SF-539 CNS
OVCAR-4 ovarian = test system: OVCAR-4 ovarian
HCT-116 colon = test system: HCT-116 colon
NCI-H460 lung = test system: NCI-H460 lung
DU-145 prostate = test system: DU-145 prostate
K-562 leukemia = test system: K-562 leukemia
PC-3 prostate = test system: PC-3 prostate
A549 NSCLC = test system: A549 NSCLC
MDA-MB-231 breast = test system: MDA-MB-231 breast
LOX IMVI melanoma = test system: LOX IMVI melanoma
786-0 renal = test system: 786-0 renal
CAKI-1 renal = test system: CAKI-1 renal
UO-31 renal = test system: UO-31 renal
NCI/ADR-RES ovarian = test system: NCI/ADR-RES ovarian
SNB-75 CNS = test system: SNB-75 CNS
T-47D breast = test system: T-47D breast
HCC-2998 colon = test system: HCC-2998 colon
UACC-257 melanoma = test system: UACC-257 melanoma
SK-MEL-2 melanoma = test system: SK-MEL-2 melanoma
SN12C renal = test system: SN12C renal
M14 melanoma = test system: M14 melanoma
IGROV1 ovarian = test system: IGROV1 ovarian
NCI-H23 lung = test system: NCI-H23 lung
COLO 205 colon = test system: COLO 205 colon
KM12 colon = test system: KM12 colon
MOLT-4 leukemia = test system: MOLT-4 leukemia
HS 578T breast = test system: HS 578T breast
A498 renal = test system: A498 renal

## COC(=O)[C@]1(c2cc3ccccc3n2S(=O)(=O)c2ccccc2)CC2CCC1NC2 (some centres not stated)
BT-549 breast
  TGI: 32.9 µM
HT29 colon
  TGI: 25.7 µM
OVCAR-3 ovarian
  TGI: 33.1 µM
EKVX NSCLC
  TGI: 30.1 µM
HOP-92 NSCLC
  TGI: 24.4 µM
MALME-3M melanoma
  TGI: 30.5 µM
SF-295 CNS
  TGI: 31.2 µM
SW-620 colon
  TGI: 31.3 µM
CCRF-CEM leukemia
  TGI: 56.8 µM
MDA-MB-435
  TGI: 27.4 µM
HOP-62 NSCLC
  TGI: 34 µM
RXF 393 renal
  TGI: 25.7 µM
HL-60(TB) leukemia
  TGI: 16.9 µM
MCF7 breast
  TGI: 28 µM
SF-268 CNS
  TGI: 40 µM
RPMI-8226 leukemia
  TGI: 23.1 µM
TK-10 renal
  TGI: > 100 µM
SK-MEL-28 melanoma
  TGI: 32 µM
U251 CNS
  TGI: 26.4 µM
ACHN renal
  TGI: 51.3 µM
OVCAR-5 ovarian
  TGI: 29.9 µM
MDA-N
  TGI: 27.8 µM
NCI-H226 lung
  TGI: 33.2 µM
OVCAR-8 ovarian
  TGI: 32.3 µM
SK-OV-3 ovarian
  TGI: 32.8 µM
SR leukemia
  TGI: 19.2 µM
HCT-15 colon
  TGI: 40.5 µM
SK-MEL-5 melanoma
  TGI: 26.4 µM
UACC-62 melanoma
  TGI: 29.5 µM
SNB-19 CNS
  TGI: 28 µM
NCI-H522 lung
  TGI: 30.6 µM
SF-539 CNS
  TGI: 32.2 µM
OVCAR-4 ovarian
  TGI: 48.3 µM
HCT-116 colon
  TGI: 26.6 µM
NCI-H460 lung
  TGI: 26.9 µM
DU-145 prostate
  TGI: 30.4 µM
K-562 leukemia
  TGI: 24.4 µM
PC-3 prostate
  TGI: 24.5 µM
A549 NSCLC
  TGI: 25.2 µM
MDA-MB-231 breast
  TGI: 27.1 µM
LOX IMVI melanoma
  TGI: 36.4 µM
786-0 renal
  TGI: 27.3 µM
CAKI-1 renal
  TGI: 29.4 µM
UO-31 renal
  TGI: 22.3 µM
NCI/ADR-RES ovarian
  TGI: 44.6 µM
SNB-75 CNS
  TGI: 30.5 µM
T-47D breast
  TGI: 27.2 µM
HCC-2998 colon
  TGI: 21.6 µM
UACC-257 melanoma
  TGI: 32 µM
SK-MEL-2 melanoma
  TGI: 31.7 µM
SN12C renal
  TGI: 29.4 µM
M14 melanoma
  TGI: 27.2 µM
IGROV1 ovarian
  TGI: 33.7 µM
NCI-H23 lung
  TGI: 40.1 µM
COLO 205 colon
  TGI: 29.7 µM
KM12 colon
  TGI: 28.3 µM

## CC1(C)[C@H](O)CC[C@]2(C)C3=CC[C@@]4(C)[C@@H]5C[C@](C)(CO)CC[C@]5(C)CC[C@]4(C)C3=CC[C@@H]12
BT-549 breast
  TGI: > 100 µM
EKVX NSCLC
  TGI: > 100 µM
HOP-92 NSCLC
  TGI: > 100 µM
MALME-3M melanoma
  TGI: > 100 µM
HOP-62 NSCLC
  TGI: > 100 µM
HL-60(TB) leukemia
  TGI: > 100 µM
MCF7 breast
  TGI: > 100 µM
SF-268 CNS
  TGI: > 100 µM
SK-MEL-28 melanoma
  TGI: > 100 µM
OVCAR-5 ovarian
  TGI: > 100 µM
MDA-N
  TGI: > 100 µM
SK-OV-3 ovarian
  TGI: > 100 µM
SR leukemia
  TGI: 4.72 µM
SK-MEL-5 melanoma
  TGI: > 100 µM
UACC-62 melanoma
  TGI: > 100 µM
NCI-H522 lung
  TGI: > 100 µM
DU-145 prostate
  TGI: > 100 µM
UO-31 renal
  TGI: 3.62 µM
UACC-257 melanoma
  TGI: > 100 µM
SK-MEL-2 melanoma
  TGI: > 100 µM
M14 melanoma
  TGI: > 100 µM
IGROV1 ovarian
  TGI: > 100 µM
NCI-H23 lung
  TGI: > 100 µM
MOLT-4 leukemia
  TGI: > 100 µM
COLO 205 colon
  TGI: > 100 µM

## O=C(Oc1ccc([N+](=O)[O-])cc1)N1CCC(C(O)(c2ccc3c(c2)OCO3)c2ccc3c(c2)OCO3)CC1
BT-549 breast
  GI50: > 100 µM
  TGI: > 100 µM
HT29 colon
  GI50: > 100 µM
  TGI: > 100 µM
OVCAR-3 ovarian
  GI50: > 100 µM
  TGI: > 100 µM
EKVX NSCLC
  GI50: > 100 µM
  TGI: > 100 µM
HOP-92 NSCLC
  GI50: > 52.3 µM
  TGI: > 100 µM
MALME-3M melanoma
  GI50: > 100 µM
  TGI: > 100 µM
SF-295 CNS
  GI50: > 100 µM
  TGI: > 100 µM
SW-620 colon
  GI50: > 100 µM
  TGI: > 100 µM
CCRF-CEM leukemia
  GI50: > 100 µM
  TGI: > 100 µM
MDA-MB-435
  GI50: > 100 µM
  TGI: > 100 µM
HOP-62 NSCLC
  GI50: > 100 µM
  TGI: > 100 µM
RXF 393 renal
  GI50: > 100 µM
  TGI: > 100 µM
HL-60(TB) leukemia
  GI50: > 100 µM
  TGI: > 100 µM
MCF7 breast
  GI50: > 100 µM
  TGI: > 100 µM
SF-268 CNS
  GI50: > 100 µM
  TGI: > 100 µM
RPMI-8226 leukemia
  GI50: > 100 µM
  TGI: > 100 µM
TK-10 renal
  GI50: > 100 µM
  TGI: > 100 µM
HS 578T breast
  GI50: > 80.4 µM
  TGI: > 100 µM
SK-MEL-28 melanoma
  GI50: > 100 µM
  TGI: > 100 µM
U251 CNS
  GI50: > 100 µM
  TGI: > 100 µM
ACHN renal
  GI50: > 100 µM
  TGI: > 100 µM
OVCAR-5 ovarian
  GI50: > 100 µM
  TGI: > 100 µM
NCI-H226 lung
  GI50: > 100 µM
  TGI: > 100 µM
OVCAR-8 ovarian
  GI50: > 100 µM
  TGI: > 100 µM
SK-OV-3 ovarian
  GI50: > 100 µM
  TGI: > 100 µM
SR leukemia
  GI50: > 100 µM
  TGI: > 100 µM
HCT-15 colon
  GI50: > 100 µM
  TGI: > 100 µM
SK-MEL-5 melanoma
  GI50: > 100 µM
  TGI: > 100 µM
UACC-62 melanoma
  GI50: > 100 µM
  TGI: > 100 µM
SNB-19 CNS
  GI50: > 100 µM
  TGI: > 100 µM
A498 renal
  GI50: > 100 µM
  TGI: > 100 µM
NCI-H522 lung
  GI50: > 100 µM
  TGI: > 100 µM
SF-539 CNS
  GI50: > 100 µM
  TGI: > 100 µM
OVCAR-4 ovarian
  GI50: > 100 µM
  TGI: > 100 µM
HCT-116 colon
  GI50: > 100 µM
  TGI: > 100 µM
NCI-H460 lung
  GI50: > 100 µM
  TGI: > 100 µM
DU-145 prostate
  GI50: > 100 µM
  TGI: > 100 µM
K-562 leukemia
  GI50: > 100 µM
  TGI: > 100 µM
PC-3 prostate
  GI50: > 100 µM
  TGI: > 100 µM
A549 NSCLC
  GI50: > 100 µM
  TGI: > 100 µM
MDA-MB-231 breast
  GI50: > 100 µM
  TGI: > 100 µM
LOX IMVI melanoma
  GI50: > 100 µM
  TGI: > 100 µM
786-0 renal
  GI50: > 100 µM
  TGI: > 100 µM
CAKI-1 renal
  GI50: > 100 µM
  TGI: > 100 µM
UO-31 renal
  GI50: > 100 µM
  TGI: > 100 µM
NCI/ADR-RES ovarian
  GI50: > 100 µM
  TGI: > 100 µM
SNB-75 CNS
  GI50: > 100 µM
  TGI: > 100 µM
T-47D breast
  GI50: > 100 µM
  TGI: > 100 µM
HCC-2998 colon
  GI50: > 100 µM
  TGI: > 100 µM
UACC-257 melanoma
  GI50: > 100 µM
  TGI: > 100 µM
SK-MEL-2 melanoma
  GI50: > 100 µM
  TGI: > 100 µM
SN12C renal
  GI50: > 100 µM
  TGI: > 100 µM
M14 melanoma
  GI50: > 100 µM
  TGI: > 100 µM
IGROV1 ovarian
  GI50: > 100 µM
  TGI: > 100 µM
NCI-H23 lung
  GI50: > 100 µM
  TGI: > 100 µM
MOLT-4 leukemia
  GI50: > 100 µM
  TGI: > 100 µM
COLO 205 colon
  GI50: > 100 µM
  TGI: > 100 µM
KM12 colon
  GI50: > 100 µM
  TGI: > 100 µM
